# Patent US20240150377A1, “MODULATORS OF CYSTIC FIBROSIS TRANSMEMBRANE CONDUCTANCE REGULATOR” (VERTEX PHARMACEUTICALS INCORPORATED, priority 2020, published 2024)
# Where two headings read alike, the source gives them in different places.
# Target: T1, CFTR (Homo sapiens, UniProt P13569, DEL508-508)
# T1 construct: endogenous in cells; host or cells: primary human bronchial epithelial cells from CF subjects (F508del/MF-HBE), differentiated at air-liquid interface
# Assay: HBE assay: Ussing chamber assay of CFTR-mediated short-circuit currents
# Type: cell-based
# Conditions: for EC50: read-out: HBE EC50
# Method in brief: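 CFTR-mediated Isc (μA/cm²) equals the peak response to apical 20 μM forskolin minus the residual after a 20 μM each BPO/GlyH-101/CFTR inhibitor 172 cocktail, recorded in Ussing chambers at Vhold 0 mV, 37 °C, pH 7.4, with 30 μM apical amiloride. Cells were F508del/MF HBE cultures preincubated 18-24 h with corrector (concentration range or 10 μM) plus 1 μM ivacaftor in 20% human serum.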
# [1] = Table 10, read-out: HBE Max activity (%)
# [2] = Table 13, read-out: HBE Activity at 10 μM (%)
# [3] = Table 12, read-out: HBE Activity at 10 μM (%)
# T1 sequence (P13569 with tags, fused parts or gaps DEL508-508): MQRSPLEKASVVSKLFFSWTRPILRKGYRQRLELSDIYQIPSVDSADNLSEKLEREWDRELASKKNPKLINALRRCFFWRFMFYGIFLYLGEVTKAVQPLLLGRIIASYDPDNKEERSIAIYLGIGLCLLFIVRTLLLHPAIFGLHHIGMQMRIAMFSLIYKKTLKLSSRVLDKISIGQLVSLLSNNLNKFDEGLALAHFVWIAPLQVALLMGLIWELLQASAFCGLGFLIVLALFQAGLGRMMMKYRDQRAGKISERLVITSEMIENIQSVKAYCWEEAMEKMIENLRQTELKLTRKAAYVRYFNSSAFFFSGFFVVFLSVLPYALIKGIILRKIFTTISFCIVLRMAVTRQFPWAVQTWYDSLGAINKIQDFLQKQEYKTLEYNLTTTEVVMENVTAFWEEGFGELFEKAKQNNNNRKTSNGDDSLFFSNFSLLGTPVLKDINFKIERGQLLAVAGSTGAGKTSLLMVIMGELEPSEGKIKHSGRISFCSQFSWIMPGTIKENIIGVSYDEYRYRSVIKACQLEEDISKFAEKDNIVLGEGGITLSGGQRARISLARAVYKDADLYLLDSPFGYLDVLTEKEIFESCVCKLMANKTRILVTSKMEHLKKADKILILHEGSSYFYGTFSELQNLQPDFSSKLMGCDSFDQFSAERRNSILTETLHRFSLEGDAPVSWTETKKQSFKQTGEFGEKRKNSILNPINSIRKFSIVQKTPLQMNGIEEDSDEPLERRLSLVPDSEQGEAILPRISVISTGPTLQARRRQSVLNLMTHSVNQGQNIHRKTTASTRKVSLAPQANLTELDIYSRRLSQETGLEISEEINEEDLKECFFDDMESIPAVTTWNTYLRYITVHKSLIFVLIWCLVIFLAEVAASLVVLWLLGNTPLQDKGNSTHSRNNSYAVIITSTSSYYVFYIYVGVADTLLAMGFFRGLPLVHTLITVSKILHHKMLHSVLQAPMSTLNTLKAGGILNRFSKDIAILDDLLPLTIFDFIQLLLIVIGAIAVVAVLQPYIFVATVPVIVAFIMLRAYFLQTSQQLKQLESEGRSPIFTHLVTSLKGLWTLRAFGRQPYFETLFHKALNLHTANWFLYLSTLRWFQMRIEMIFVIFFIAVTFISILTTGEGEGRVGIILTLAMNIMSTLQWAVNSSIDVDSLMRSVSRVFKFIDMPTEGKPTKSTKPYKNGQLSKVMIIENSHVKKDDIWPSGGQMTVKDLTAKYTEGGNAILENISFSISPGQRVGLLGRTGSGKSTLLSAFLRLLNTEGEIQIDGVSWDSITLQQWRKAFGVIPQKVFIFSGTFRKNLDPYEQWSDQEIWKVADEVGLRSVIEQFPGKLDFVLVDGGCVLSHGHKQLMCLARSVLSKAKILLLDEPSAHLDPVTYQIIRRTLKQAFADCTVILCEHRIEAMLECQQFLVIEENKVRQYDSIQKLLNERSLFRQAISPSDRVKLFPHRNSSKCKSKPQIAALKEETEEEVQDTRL
smiles,measurement,setting,value
Cc1cccc(C)c1-c1cc2nc(n1)NS(=O)(=O)c1cccc(c1)C(=O)N(C[C@H]1CC[C@@H](N3CCCC3=O)CC1)[C@H](CC(C)(C)C)CO2 [Compound 910],EC50,Table 10,< 1000 nM
same,Emax,[1],> 60%
Cc1cccc(C)c1-c1cc2nc(n1)NS(=O)(=O)c1cccc(c1)C(=O)N(CC1CCC(NCC(=O)O)CC1)[C@H](CC(C)(C)C)CO2 (stereo partly shown) [Compound 911],EC50,Table 10,3000 to 30000 nM
same,Emax,[1],30 to 60%
Cc1cccc(C)c1-c1cc2nc(n1)NS(=O)(=O)c1cccc(c1)C(=O)N(CC1CCC(NCC(=O)O)CC1)[C@H](CC(C)(C)C)CO2 (stereo partly shown) [Compound 912],activation at 10 µM,"Table 10, read-out: HBE activity at 10 (μM) (%)",< 300%
Cc1cccc(C)c1-c1cc2nc(n1)NS(=O)(=O)c1cccc(c1)C(=O)N(CC1CCC(N3C[C@@H](C)O[C@@H](C)C3)CC1)[C@H](CC(C)(C)C)CO2 (stereo partly shown) [Compound 913],EC50,Table 10,< 1000 nM
same,Emax,[1],> 60%
Cc1cccc(C)c1-c1cc2nc(n1)NS(=O)(=O)c1cccc(c1)C(=O)N(CC1CCC(N3C[C@@H](C)O[C@@H](C)C3)CC1)[C@H](CC(C)(C)C)CO2 (stereo partly shown) [Compound 914],EC50,Table 10,< 1000 nM
Cc1cccc(C)c1-c1cc2nc(n1)NS(=O)(=O)c1cccc(c1)C(=O)N(Cc1cccc(Br)n1)[C@H](CC(C)(C)C)CO2 [Compound 992],activation at 10 µM,[2],> 600%
Cc1cccc(C)c1-c1cc2nc(n1)NS(=O)(=O)c1cccc(c1)C(=O)N(Cc1ccc(Br)cn1)[C@H](CC(C)(C)C)CO2 [Compound 993],activation at 10 µM,[2],> 600%
Cc1cccc(C)c1-c1cc2nc(n1)NS(=O)(=O)c1cccc(c1)C(=O)N(Cc1cc(N(C)CC(C)(C)C)ccn1)[C@H](CC(C)(C)C)CO2 [Compound 994],activation at 10 µM,[2],> 600%
Cc1cccc(C)c1-c1cc2nc(n1)NS(=O)(=O)c1cccc(c1)C(=O)N(Cc1cc(NC(C)C)ccn1)[C@H](CC(C)(C)C)CO2 [Compound 995],activation at 10 µM,[2],> 600%
Cc1cccc(C)c1-c1cc2nc(n1)NS(=O)(=O)c1cccc(c1)C(=O)N(Cc1ccc(NC(C)C)cn1)[C@H](CC(C)(C)C)CO2 [Compound 996],EC50,Table 13,< 1000 nM
same,Emax,"Table 13, read-out: HBE Max Activity (%)",> 60%
Cc1cccc(C)c1-c1cc2nc(n1)NS(=O)(=O)c1cccc(c1)C(=O)N(CC1(N(C)C)CC3(CCC3)C1)[C@H](CC(C)(C)C)CO2 [Compound 997],activation at 10 µM,[2],> 600%
Cc1cccc(C)c1-c1cc2nc(n1)NS(=O)(=O)c1cccc(c1)C(=O)N(Cc1cc3ccoc3cn1)[C@H](CC(C)(C)C)CO2 [Compound 998],activation at 10 µM,[2],> 600%
Cc1cccc(C)c1-c1cc2nc(n1)NS(=O)(=O)c1cccc(c1)C(=O)N(CC1(NC(=O)OC(C)(C)C)CC3(CCC3)C1)[C@H](CC(C)(C)C)CO2 [Compound 999],activation at 10 µM,[2],> 600%
Cc1cccc(C)c1-c1cc2nc(n1)NS(=O)(=O)c1cccc(c1)C(=O)N(CC1CC3(C1)CC(N(C)C)C3)[C@H](CC(C)(C)C)CO2 (stereo partly shown) [Compound 1000],activation at 10 µM,[2],> 600%
COC(=O)NC1CC2(CC(CN3C(=O)c4cccc(c4)S(=O)(=O)Nc4nc(cc(-c5c(C)cccc5C)n4)OC[C@H]3CC(C)(C)C)C2)C1 (stereo partly shown) [Compound 1001],activation at 10 µM,[2],> 600%
Cc1cccc(C)c1-c1cc2nc(n1)NS(=O)(=O)c1cccc(c1)C(=O)N(CC1CC3(C1)CC(NC(=O)OC1CC1)C3)[C@H](CC(C)(C)C)CO2 (stereo partly shown) [Compound 1002],activation at 10 µM,[2],> 600%
Cc1cccc(C)c1-c1cc2nc(n1)NS(=O)(=O)c1cccc(c1)C(=O)N(CC1CC3(C1)CC(NC(=O)OC(C)C)C3)[C@H](CC(C)(C)C)CO2 (stereo partly shown) [Compound 1003],activation at 10 µM,[2],> 600%
Cc1cccc(C)c1-c1cc2nc(n1)NS(=O)(=O)c1cccc(c1)C(=O)N(CC1CC3(C1)CC(NC(=O)OC(C)(C)C)C3)[C@H](CC(C)C)CO2 (stereo partly shown) [Compound 1004],activation at 10 µM,[3],> 600%
Cc1cccc(C)c1-c1cc2nc(n1)NS(=O)(=O)c1cccc(c1)C(=O)N(C[C@H]1C[C@@H](NC(=O)OC(C)C)C1)[C@H](CC(C)(C)C)CO2 [Compound 1005],EC50,Table 12,< 1000 nM
same,Emax,"Table 12, read-out: HBE Max Activity (%)",> 60%
Cc1cccc(C)c1-c1cc2nc(n1)NS(=O)(=O)c1cccc(c1)C(=O)N(C[C@H]1C[C@@H](NC(=O)OC(C)C)C1)[C@H](CC(C)(C)C)CO2 [Compound 1006],activation at 10 µM,[3],> 600%
